Data from patent US8927533B2, “Thio derivatives bearing lactams as potent HDAC inhibitors and their uses as medicaments” (SIGMA-TAU Industrie Farmaceutiche Riunite S.p.A., priority 2011, dated 2015).
Read-outs that look alike come from different tables or passages of the source.

Columns and labels:
HDAC10 = molecular target: T1, HDAC10 (Homo sapiens, UniProt Q969S8); test: HDAC enzymatic assay, HDAC10; assay type: biochemical
T1 sequence (Q969S8 1-669): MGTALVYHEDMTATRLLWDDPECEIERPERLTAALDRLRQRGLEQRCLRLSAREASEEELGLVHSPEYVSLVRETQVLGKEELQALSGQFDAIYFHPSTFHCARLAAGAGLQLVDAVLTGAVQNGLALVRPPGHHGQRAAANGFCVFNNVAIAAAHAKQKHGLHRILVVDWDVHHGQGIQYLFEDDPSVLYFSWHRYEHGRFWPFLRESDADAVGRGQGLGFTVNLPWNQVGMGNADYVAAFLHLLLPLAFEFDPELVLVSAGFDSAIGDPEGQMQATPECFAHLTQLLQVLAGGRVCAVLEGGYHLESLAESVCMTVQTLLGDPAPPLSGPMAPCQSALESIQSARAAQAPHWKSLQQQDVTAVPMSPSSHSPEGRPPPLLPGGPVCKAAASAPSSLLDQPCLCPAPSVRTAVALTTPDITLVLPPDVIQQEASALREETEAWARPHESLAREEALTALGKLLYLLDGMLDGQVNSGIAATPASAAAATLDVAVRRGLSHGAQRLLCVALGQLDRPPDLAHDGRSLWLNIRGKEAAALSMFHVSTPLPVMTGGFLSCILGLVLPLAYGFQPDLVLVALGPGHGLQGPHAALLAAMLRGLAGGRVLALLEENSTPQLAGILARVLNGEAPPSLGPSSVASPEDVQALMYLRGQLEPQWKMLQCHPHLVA
Experimental: (§1) Each compound was dissolved in DMSO, and progressively diluted solutions were used for testing. […] Upon its deacetylation, the fluorophore was released given rise to fluorescence emission which was detected by a fluorimeter, and the IC50 values of the compounds were determined by analyzing dose-response inhibition curves.

HCT116 colon cancer = test: Antitumour activity, HCT116 xenograft, oral (Example 49); assay type: in vivo, mice; conditions: 60 mg/10 ml/kg p.o., PEG200/DMSO/Cremophor EL
Excerpt: (§2) The experiment of example 48 was repeated with another compound on mice animal model developing HCT116 colon cancer as described above or A2780 ovarian cancer, and administering the drugs solubilised in orally in PEG200/DMSO/Cremophor EL (Sigma): 85/10/5 (volume percentage).

A2780 ovarian cancer = test: Antitumour activity, A2780 xenograft, oral (Example 49); assay type: in vivo, mice; conditions: 110 mg/10 ml/kg p.o., PEG200/DMSO/Cremophor EL
Excerpt: as §2

HDAC4 = HDAC4 (Homo sapiens, UniProt P56524); test: HDAC enzymatic assay, HDAC4; assay type: biochemical
Experimental: as §1

HDAC1 = HDAC1 (Homo sapiens, UniProt Q13547); test: HDAC enzymatic assay, HDAC1; assay type: biochemical
Experimental: as §1

HDAC2 = HDAC2 (Homo sapiens, UniProt Q92769); test: HDAC enzymatic assay, HDAC2; assay type: biochemical
Experimental: as §1

HDAC11 = molecular target: T2, HDAC11 (Homo sapiens, UniProt Q96DB2); test: HDAC enzymatic assay, HDAC11; assay type: biochemical
T2 sequence (Q96DB2 1-347): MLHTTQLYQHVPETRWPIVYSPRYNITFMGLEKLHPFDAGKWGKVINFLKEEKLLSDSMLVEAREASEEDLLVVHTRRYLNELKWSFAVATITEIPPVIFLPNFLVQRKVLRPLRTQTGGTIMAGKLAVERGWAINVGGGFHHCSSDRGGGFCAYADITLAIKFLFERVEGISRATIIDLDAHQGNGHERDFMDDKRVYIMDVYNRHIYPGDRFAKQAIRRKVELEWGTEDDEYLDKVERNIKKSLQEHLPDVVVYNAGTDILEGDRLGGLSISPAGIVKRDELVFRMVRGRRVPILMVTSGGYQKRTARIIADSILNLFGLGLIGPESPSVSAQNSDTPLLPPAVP
Experimental: as §1

[1] = molecular target: T3, HDAC3 (complex of full length human HDAC3 with human NCOR2 amino acids 395-489) (Homo sapiens, UniProt O15379); test: HDAC enzymatic assay, HDAC3; assay type: biochemical
T3 construct: complex of full length human HDAC3 with a C-terminal His-tag; His-tag (C); host or cells: baculovirus expression system
Experimental: as §1

[2] = system: NCI-H460 non-small cell lung carcinoma cells; test: Cytotoxicity, sulphorodamine B, H460; conditions: Homo sapiens, NCI-H460, read-out: H460 cell line IC50 (μM)
Experimental: (§3) They were allowed to attach and recover for at least 24 h.
(§4) The plates were incubated for 24 h at 37° C., after which they were washed 3 times by removal of the supernatant and addition of PBS. The plates were then incubated for further 48 h at 37° C. 200 μl PBS and 50 μl of cold 80% TCA were added and the plates were incubated on ice for at least 1 h. TCA was removed and the plates were washed 3 times by immersion in distilled-water. They were then dried on paper at 40° C. for 5 min. 200 μl of 0.4% sulphorodamine B in 1% acetic acid were added. The plates were incubated at room temperature for further 30 min. Sulphorodamine B was removed, and the plates were washed 3 times by immersion in 1% acetic acid and were dried on paper and at 40° C. for 5 min. Then 200 μl Tris 10 mM were added. The plates were kept under magnetic stirring for 20 min. Cell survival was determined by means of optical density by a Multiskan spectrofluorimeter at 540 nm. The amount of cells killed was calculated as the percentage decrease in sulphorodamine B binding compared to control cultures.

[3] = system: HCT116 colon cancer cells; test: Cytotoxicity, sulphorodamine B, HCT116; conditions: Homo sapiens, HCT-116, read-out: HCT116 cell line IC50 (μM)
Experimental: as §3, §4

[4] = Table 2, thio (SH) vs hydroxamate (CONHOH) MBG analogues, read-out: HDAC isoforms, 10 (IC50)
[5] = Table 2, thio (SH) vs hydroxamate (CONHOH) MBG analogues, read-out: HDAC isoforms, 4 (IC50)
[6] = Table 2, thio (SH) vs hydroxamate (CONHOH) MBG analogues, read-out: HDAC isoforms, 1 (IC50)
[7] = Table 2, thio (SH) vs hydroxamate (CONHOH) MBG analogues, read-out: HDAC isoforms, 2 (IC50)
[8] = Table 2, thio (SH) vs hydroxamate (CONHOH) MBG analogues, read-out: HDAC isoforms, 11 (IC50)
[9] = Table 2, thio (SH) vs hydroxamate (CONHOH) MBG analogues, read-out: HDAC isoforms, 3 (IC50)

Sequence of HDAC4 (P56524 whole entry): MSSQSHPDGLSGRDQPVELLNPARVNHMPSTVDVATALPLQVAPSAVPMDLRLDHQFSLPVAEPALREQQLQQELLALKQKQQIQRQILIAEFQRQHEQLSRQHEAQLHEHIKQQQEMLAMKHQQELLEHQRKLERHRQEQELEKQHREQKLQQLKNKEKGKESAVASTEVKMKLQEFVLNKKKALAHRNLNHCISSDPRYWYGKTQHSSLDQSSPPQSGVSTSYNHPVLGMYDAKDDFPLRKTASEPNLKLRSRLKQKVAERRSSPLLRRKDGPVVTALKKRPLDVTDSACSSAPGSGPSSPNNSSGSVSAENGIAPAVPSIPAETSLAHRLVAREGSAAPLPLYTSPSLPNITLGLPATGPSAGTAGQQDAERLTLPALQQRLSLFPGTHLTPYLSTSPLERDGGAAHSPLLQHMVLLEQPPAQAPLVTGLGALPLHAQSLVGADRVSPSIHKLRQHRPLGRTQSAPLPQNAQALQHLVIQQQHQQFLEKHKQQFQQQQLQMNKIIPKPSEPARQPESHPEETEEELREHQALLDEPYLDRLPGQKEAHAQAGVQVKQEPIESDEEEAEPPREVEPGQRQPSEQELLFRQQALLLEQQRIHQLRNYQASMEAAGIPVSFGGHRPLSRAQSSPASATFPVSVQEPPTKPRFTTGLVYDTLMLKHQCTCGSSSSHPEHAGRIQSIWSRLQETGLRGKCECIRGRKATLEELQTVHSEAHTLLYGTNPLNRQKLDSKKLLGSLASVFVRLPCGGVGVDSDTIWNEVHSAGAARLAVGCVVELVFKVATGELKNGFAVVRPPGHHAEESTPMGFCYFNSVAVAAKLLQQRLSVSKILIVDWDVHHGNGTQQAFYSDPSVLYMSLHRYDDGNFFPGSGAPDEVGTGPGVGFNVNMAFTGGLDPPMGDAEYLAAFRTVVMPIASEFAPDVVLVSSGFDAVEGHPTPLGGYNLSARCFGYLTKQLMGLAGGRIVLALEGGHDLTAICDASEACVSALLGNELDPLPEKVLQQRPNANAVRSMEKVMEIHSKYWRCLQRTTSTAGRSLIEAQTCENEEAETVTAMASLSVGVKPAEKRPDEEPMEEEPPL
Sequence of HDAC1 (Q13547 whole entry): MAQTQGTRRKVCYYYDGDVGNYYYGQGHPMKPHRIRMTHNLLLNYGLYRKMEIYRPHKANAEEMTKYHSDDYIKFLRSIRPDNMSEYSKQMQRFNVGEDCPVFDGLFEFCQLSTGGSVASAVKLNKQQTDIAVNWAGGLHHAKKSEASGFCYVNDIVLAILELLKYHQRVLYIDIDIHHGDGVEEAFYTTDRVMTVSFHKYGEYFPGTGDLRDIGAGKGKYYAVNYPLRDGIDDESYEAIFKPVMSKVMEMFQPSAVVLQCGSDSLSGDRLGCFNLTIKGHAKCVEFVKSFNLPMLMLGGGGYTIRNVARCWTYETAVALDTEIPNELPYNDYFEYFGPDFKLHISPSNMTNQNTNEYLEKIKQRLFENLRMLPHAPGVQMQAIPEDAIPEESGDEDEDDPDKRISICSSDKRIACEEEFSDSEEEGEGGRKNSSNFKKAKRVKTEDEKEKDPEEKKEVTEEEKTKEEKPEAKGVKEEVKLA
Sequence of HDAC2 (Q92769 whole entry): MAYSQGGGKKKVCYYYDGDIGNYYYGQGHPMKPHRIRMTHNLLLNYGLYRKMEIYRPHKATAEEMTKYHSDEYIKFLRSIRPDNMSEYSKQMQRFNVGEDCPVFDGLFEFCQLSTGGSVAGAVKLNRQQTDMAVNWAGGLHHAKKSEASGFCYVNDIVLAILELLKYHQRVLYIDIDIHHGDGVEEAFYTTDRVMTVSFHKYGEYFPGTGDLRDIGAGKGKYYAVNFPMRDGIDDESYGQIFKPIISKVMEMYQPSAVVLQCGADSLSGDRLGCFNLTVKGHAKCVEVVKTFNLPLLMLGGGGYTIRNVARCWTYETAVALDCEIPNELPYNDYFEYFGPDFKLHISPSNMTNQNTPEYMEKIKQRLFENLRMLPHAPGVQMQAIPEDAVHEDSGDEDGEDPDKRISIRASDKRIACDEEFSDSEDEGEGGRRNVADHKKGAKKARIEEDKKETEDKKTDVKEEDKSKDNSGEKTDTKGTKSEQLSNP
T3 sequence (O15379 whole entry, the tested form may be a part): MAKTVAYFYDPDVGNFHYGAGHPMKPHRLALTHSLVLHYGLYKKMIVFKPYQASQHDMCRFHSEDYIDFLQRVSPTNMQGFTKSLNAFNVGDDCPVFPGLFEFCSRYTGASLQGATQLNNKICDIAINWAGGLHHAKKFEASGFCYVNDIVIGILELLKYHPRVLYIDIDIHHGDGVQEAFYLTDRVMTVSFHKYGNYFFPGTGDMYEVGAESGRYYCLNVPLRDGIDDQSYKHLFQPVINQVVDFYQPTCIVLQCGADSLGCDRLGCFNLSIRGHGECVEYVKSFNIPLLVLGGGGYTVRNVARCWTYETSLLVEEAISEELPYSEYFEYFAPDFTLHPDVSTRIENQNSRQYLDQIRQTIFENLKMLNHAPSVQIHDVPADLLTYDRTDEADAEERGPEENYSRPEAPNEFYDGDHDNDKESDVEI
T3 sequence (Q9Y618 395-489 partner limits assumed): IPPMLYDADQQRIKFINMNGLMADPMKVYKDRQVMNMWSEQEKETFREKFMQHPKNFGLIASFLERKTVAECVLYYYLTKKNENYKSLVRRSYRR

IC50 (HDAC10; [4]) | BWL % (HCT116 colon cancer) | BWL % (A2780 ovarian cancer) | IC50 (HDAC4; [5]) | IC50 (HDAC1; [6]) | IC50 (HDAC2; [7]) | IC50 (HDAC11; [8]) | IC50 [1, 9] | IC50 (HDAC10; fluorogenic tetrapeptide RHKKAc substrate 10 μM, read-out: HDAC isoforms IC50 (nM), 10) | IC50 (HDAC4; fluorogenic tetrapeptide RHKKAc substrate 10 μM, read-out: HDAC isoforms IC50 (nM), 4) | IC50 (HDAC1; fluorogenic tetrapeptide RHKKAc substrate 10 μM, read-out: HDAC isoforms IC50 (nM), 1) | IC50 (HDAC2; fluorogenic tetrapeptide RHKKAc substrate 10 μM, read-out: HDAC isoforms IC50 (nM), 2) | IC50 (HDAC11; fluorogenic tetrapeptide RHKKAc substrate 10 μM, read-out: HDAC isoforms IC50 (nM), 11) | IC50 ([1]; fluorogenic tetrapeptide RHKKAc substrate 10 μM, read-out: HDAC isoforms IC50 (nM), 3) | SMILES | TVI % (HCT116 colon cancer) | TVI % (A2780 ovarian cancer) | IC50 [2] | IC50 [3]
< 50 nM | 1% | 7% | < 50 nM | < 50 nM | 50 to 100 nM | < 50 nM | < 50 nM |  |  |  |  |  |  | CC(=O)SCCCCC[C@H](NC(=O)[C@H]1CCC(=O)N1)C(=O)Nc1ccccc1 [Example 21, Thioacetic acid S—{(S)-6-[((R)-5-oxo-pyrrolidine-2-carbonyl)-amino]-6-phenylcarbamoyl-hexyl}ester] | 62% | 89% | < 0.5 µM | 
< 50 nM |  |  | 50 to 100 nM | < 50 nM | 50 to 100 nM | < 50 nM | < 50 nM | < 50 nM | 50 to 100 nM | < 50 nM | 50 to 100 nM | < 50 nM | < 50 nM | O=C1CC[C@H](C(=O)N[C@@H](CCCCCS)C(=O)Nc2ccccc2)N1 [Example 33, (R)-5-Oxo-pyrrolidine-2-carboxylic acid ((S)-6-mercapto-1-phenylcarbamoyl-hexyl)amide] |  |  |  | 1 to 10 µM
